Paper PMC10786919, “Design-rules for stapled peptides with in vivo activity and their application to Mdm2/X antagonists” (Nature Communications, 2024)
Values after ≈ are worked out from the molar mass of the structure shown. Where two headings read alike, the source gives them in different places. Positions of bridges follow the written chain, without caps; N, C: chain ends. Non-standard residues stand in square brackets, D forms with d. Residues, ends and D or L forms follow the SMILES beside them. Lys(N3) = [N-]=[N+]=NCCCC[C@H](N)C(=O)O; R8 = C=CCCCCCC[C@@](C)(N)C(=O)O; Cba = N[C@@H](CC1CCC1)C(=O)O; S5 = C=CCCC[C@](C)(N)C(=O)O; Ahx = NCCCCCC(=O)O; βAla = NCCC(=O)O

Columns and labels:
[1] = Lactate dehydrogenase (LDH) release assay; format: cell-based
Experimental: (§1) HCT116 cells were stably transfected with a p53 responsive β-lactamase reporter and expanded in McCoy’s 5 A Medium with 10% fetal bovine serum (FBS), Blasticidin, and Penicillin/Streptomycin and then transferred to 1.5 ml freezing vials and stored under liquid nitrogen in growth media containing 5% DMSO. […] The cells were then seeded into a 384-well plate at a density of 8000 cells per well. […] The final working concentration of DMSO was 0.5%. Lactate dehydrogenase release was detected using the CytoTox-ONE Homogenous Membrane Integrity Assay Kit (Promega), as per the manufacturer’s instructions. Measurements were carried out using the Tecan plate reader. […] Measurements were taken a minimum of three times (biological replicates) and values are reported as geometric means of the replicates.

HCT116 cells = assay: Lactate dehydrogenase (LDH) release assay; format: cell-based
Experimental: as §1

[2] = Solubility assay (kinetic solubility, PBS pH 7); format: physicochemical; settings: pH 7, PBS; for solubility kinetic: pH 7, aqueous buffer, kinetic from dmso stock, read-out: Solubility
Experimental: The standard reference solutions were prepared by diluting the 10 mM stock in 10:80:10 solution of acetonitrile:methanol:DMSO to 100 µM.
The solubility value is calculated by the following equation:
Solubility [µM] = (Peak area of sample/ Peak area of standard) (Standard concentration)

[3] = Experimental LogD (partition coefficient); settings: for logD: not stated, Partition Coeff LogD
in vitro = assay: in vitro
Description: Further, there have been several literature reports[18]–[20] that highlight that the combination of hydrophobic character and positive charge can result in mast cell degranulation (MCD), a potentially fatal condition[18]–[20]. […] The NanoClick assay[22] determines permeability of azide-labeled peptides by combining intracellular copper-free click chemistry with NanoBRET technology. Specifically, if an azido-peptide achieves cytosolic exposure, it will react with a cyclooctyne-decorated Halotag construct that is fused with nanoluciferase. This reaction blocks the click labelling of a subsequently added azido-labeled acceptor dye, thus decreasing the NanoBRET signal in a manner that is target-binding agnostic.
This assay was previously described in detail. The assay was performed in 384-well white assay plates (PerkinElmer CUSG03874) using assay-ready frozen cells that had been transiently transfected with the NanoLuc-HaloTag vector that were thawed at plated in complete media at a density of 6000 cells/ well and incubated at 37 °C 5% CO2 overnight. DIBAC-CA was diluted in assay buffer (OptiMem without phenol red + 1% FBS) and added to cells at a final concentration of 3 μM and incubated at 37 °C 5% CO2 for 1 h. Cells were subsequently centrifuged using a BlueWasher instrument (Blue Cat Bio) to remove the DIBAC-CA solution and washed two times with HBSS (Ca2 + , Mg2 + ). A volume of 30 μL of assay buffer was added back to cell plates. Peptides were serially diluted 4-fold in DMSO with a Hamilton Star apparatus and then delivered into assay plates with an acoustic liquid handler Labcyte ECHO (300 nl, 1% DMSO in-well concentration). After incubating cells with peptide for the desired time (4 or 18 h), the HaloTag ligand, NanoBret618-azide, was added to each well at a final concentration of 10 μM. […] Following addition of NanoBRET Nano-Glo Substrate, donor emission (450 nm) and acceptor emission (610 nm) were measured using an Envision instrument (PerkinElmer).

[4] = 0% FBS 4Hr, read-out: LDH: Cytotoxicity assay: EC50
[5] = 10% FBS 16Hr, read-out: LDH: Cytotoxicity assay: EC50

Row | SMILES | EC50 ([1]; LDH: Cytotoxicity assay EC50) [µM] | solubility kinetic [2] [µM] | logD [3] | EC50 ([1]; LDH: Cytotoxicity assay: EC50) [µM] | LDH: Cytotoxicity assay: % Effect (HCT116 cells) [%] | other results
1 | CC(=O)N[C@@H](CCCCN=[N+]=[N-])C(=O)N[C@@H](CCCNC(=N)N)C(=O)N[C@@H](CCCNC(=N)N)C(=O)NCCCCCC(=O)N[C@H](C(=O)N[C@@H](CO)C(=O)N[C@@H](Cc1ccccc1)C(=O)N[C@]1(C)CCCCCCC=CCCC[C@@](C)(C(=O)N[C@@H](CCC(=O)O)C(=O)N[C@@H](CC(N)=O)C(=O)N[C@@H](Cc2ccccc2)C(N)=O)NC(=O)[C@H](CC(C)C)NC(=O)[C@H](CC(C)C)NC(=O)[C@H](C)NC(=O)[C@H](Cc2c[nH]c3ccccc23)NC(=O)[C@H](Cc2ccc(O)cc2)NC(=O)[C@H](CCC(=O)O)NC1=O)[C@@H](C)O [MP-083] (Ac-[Lys(N3)]RR[Ahx]TSF[R8]EYWALL[S5]ENF-NH2; staple 8-15) | > 50 | 4 (≈ 9.73 µg/mL) | 2.54 |  |  | LDH: Cytotoxicity assay % Effect (HCT116 cells): 0.165%
2 | CC(=O)N[C@@H](CCCCN=[N+]=[N-])C(=O)N[C@@H](CCCCN)C(=O)N[C@@H](CCCCN)C(=O)NCCCCCC(=O)N[C@H](C(=O)N[C@@H](CO)C(=O)N[C@@H](Cc1ccccc1)C(=O)N[C@]1(C)CCCCCCC=CCCC[C@@](C)(C(=O)N[C@@H](CCC(=O)O)C(=O)N[C@@H](CC(N)=O)C(=O)N[C@@H](Cc2ccccc2)C(N)=O)NC(=O)[C@H](CC(C)C)NC(=O)[C@H](CC(C)C)NC(=O)[C@H](C)NC(=O)[C@H](Cc2c[nH]c3ccccc23)NC(=O)[C@H](Cc2ccc(O)cc2)NC(=O)[C@H](CCC(=O)O)NC1=O)[C@@H](C)O [MP-082] (Ac-[Lys(N3)]KK[Ahx]TSF[R8]EYWALL[S5]ENF-NH2; staple 8-15) | > 50 | 2 (≈ 4.75 µg/mL) | 2.46 |  |  | 
3 | CC(=O)N[C@@H](CCCCN=[N+]=[N-])C(=O)NCCC(=O)N[C@@H](CC(C)C)C(=O)N[C@H](C(=O)N[C@@H](Cc1ccccc1)C(=O)N[C@]1(C)CCCCCCC=CCCC[C@@](C)(C(=O)N[C@@H](CO)C(=O)N[C@@H](C)C(=O)N[C@@H](CCCNC(=N)N)C(N)=O)NC(=O)[C@H](CC2CCC2)NC(=O)[C@H](CCC(N)=O)NC(=O)[C@H](C)NC(=O)[C@H](Cc2c[nH]c3ccccc23)NC(=O)[C@H](Cc2ccc(O)cc2)NC(=O)[C@H](CCC(=O)O)NC1=O)[C@@H](C)O [MP-480] (Ac-[Lys(N3)][βAla]LTF[R8]EYWAQ[Cba][S5]SAR-NH2; staple 6-13) |  |  |  | > 50 |  | cell entry EC50 (in vitro; Nanoclick permeability assay EC50): 0.1 µM
4 | CC(=O)N[C@@H](CCCCN=[N+]=[N-])C(=O)NCCC(=O)N[C@@H](CC(C)C)C(=O)N[C@H](C(=O)N[C@@H](Cc1ccccc1)C(=O)N[C@]1(C)CCCCCCC=CCCC[C@@](C)(C(=O)N[C@@H](C)C(=O)N[C@@H](C)C(=O)N[C@@H](C)C(=O)O)NC(=O)[C@H](CC2CCC2)NC(=O)[C@H](CCC(N)=O)NC(=O)[C@H](C)NC(=O)[C@H](Cc2c[nH]c3ccccc23)NC(=O)[C@H](Cc2ccc(O)cc2)NC(=O)[C@H](CCC(=O)O)NC1=O)[C@@H](C)O [MP-684] |  |  |  |  |  | EC50 [1, 4]: > 50.7 µM; EC50 [1, 5]: > 50.7 µM; cell entry EC50 (in vitro): 0.496 µM
5 | CC(=O)N[C@@H](CCCNC(=N)N)C(=O)NCCC(=O)N[C@@H](CC(C)C)C(=O)N[C@H](C(=O)N[C@@H](Cc1ccccc1)C(=O)N[C@]1(C)CCCCCCC=CCCC[C@@](C)(C(=O)N[C@@H](CO)C(=O)N[C@@H](C)C(=O)N[C@@H](C)C(N)=O)NC(=O)[C@H](CC2CCC2)NC(=O)[C@H](CCC(N)=O)NC(=O)[C@H](C)NC(=O)[C@H](Cc2c[nH]c3ccccc23)NC(=O)[C@H](Cc2ccc(O)cc2)NC(=O)[C@H](CCC(=O)O)NC1=O)[C@@H](C)O [MP-000] |  | 2 (≈ 3.94 µg/mL) | 2.66 | > 50 | 6.079 | 
6 | CC(=O)N[C@@H](CCCCN=[N+]=[N-])C(=O)N[C@@H](CCCCN)C(=O)N[C@@H](CCCCN)C(=O)N[C@@H](CCCCN)C(=O)NCCCCCC(=O)N[C@H](C(=O)N[C@@H](CO)C(=O)N[C@@H](Cc1ccccc1)C(=O)N[C@]1(C)CCCCCCC=CCCC[C@@](C)(C(=O)N[C@@H](CCC(=O)O)C(=O)N[C@@H](CC(N)=O)C(=O)N[C@@H](Cc2ccccc2)C(N)=O)NC(=O)[C@H](CC(C)C)NC(=O)[C@H](CC(C)C)NC(=O)[C@H](C)NC(=O)[C@H](Cc2c[nH]c3ccccc23)NC(=O)[C@H](Cc2ccc(O)cc2)NC(=O)[C@H](CCC(=O)O)NC1=O)[C@@H](C)O [MP-085] (Ac-[Lys(N3)]KKK[Ahx]TSF[R8]EYWALL[S5]ENF-NH2; staple 9-16) | > 50 | 2 (≈ 5.01 µg/mL) | 2.39 |  |  | 
7 | CC(=O)N[C@@H](CCCCN=[N+]=[N-])C(=O)NCCC(=O)N[C@@H](CC(C)C)C(=O)N[C@H](C(=O)N[C@@H](Cc1ccccc1)C(=O)N[C@]1(C)CCCCC#CC#CCCC[C@@](C)(C(=O)N[C@@H](C)C(=O)N[C@@H](C)C(=O)N[C@@H](C)C(=O)N[C@@H](C)C(=O)N[C@@H](C)C(=O)N[C@H](C)C(N)=O)NC(=O)[C@H](CC2CCC2)NC(=O)[C@H](CCC(N)=O)NC(=O)[C@H](C)NC(=O)[C@H](Cc2c[nH]c3ccccc23)NC(=O)[C@H](Cc2ccc(O)cc2)NC(=O)[C@H](CCC(=O)O)NC1=O)[C@@H](C)O [MP-616] |  |  | 2.67 |  |  | EC50 [1, 4]: > 50.7 µM; EC50 [1, 5]: > 50.7 µM; LDH: Cytotoxicity assay: % Effect (HCT116 cells; 0% FBS 4Hr): 12.87%; LDH: Cytotoxicity assay: % Effect (HCT116 cells; 10% FBS 16Hr): 8.138%
8 | CC(=O)N[C@@H](CCCNC(=N)N)C(=O)NCCC(=O)N[C@@H](CCCCN=[N+]=[N-])C(=O)N[C@@H](CC(C)C)C(=O)N[C@H](C(=O)N[C@@H](Cc1ccccc1)C(=O)N[C@]1(C)CCCCCCC=CCCC[C@@](C)(C(=O)N[C@@H](CO)C(=O)N[C@@H](C)C(=O)N[C@@H](C)C(N)=O)NC(=O)[C@H](CC2CCC2)NC(=O)[C@H](CCC(N)=O)NC(=O)[C@H](C)NC(=O)[C@H](Cc2c[nH]c3ccccc23)NC(=O)[C@H](Cc2ccc(O)cc2)NC(=O)[C@H](CCC(=O)O)NC1=O)[C@@H](C)O [MP-4004] |  |  |  | > 50 | 7.573 | Solubility [2]: Poorly Behaved; Partition Coeff LogD [3]: Poorly Behaved
9 | CC(=O)N[C@@H](CCCNC(=N)N)C(=O)N[C@@H](CCCNC(=N)N)C(=O)NCCCCCC(=O)N[C@@H](CCCCN=[N+]=[N-])C(=O)N[C@@H](CC(C)C)C(=O)N[C@H](C(=O)N[C@@H](Cc1ccccc1)C(=O)N[C@]1(C)CCCCCCC=CCCC[C@@](C)(C(=O)N[C@@H](CO)C(=O)N[C@@H](C)C(=O)N[C@@H](C)C(N)=O)NC(=O)[C@H](CC2CCC2)NC(=O)[C@H](CCC(N)=O)NC(=O)[C@H](C)NC(=O)[C@H](Cc2c[nH]c3ccccc23)NC(=O)[C@H](Cc2ccc(O)cc2)NC(=O)[C@H](CCC(=O)O)NC1=O)[C@@H](C)O [MP-007] |  | 37 (≈ 86 µg/mL) | 2.83 | > 50 | 23.39 | 
10 | CC(C)C[C@@H]1NC(=O)[C@H](C)NC(=O)[C@H](Cc2c[nH]c3ccccc23)NC(=O)[C@H](Cc2ccc(O)cc2)NC(=O)[C@H](CCC(=O)O)NC(=O)[C@](C)(NC(=O)[C@H](Cc2ccccc2)NC(=O)[C@H](CO)NC(=O)[C@@H](NC(=O)CNC(=O)[C@H](CO)NC(=O)CNC(=O)[C@@H](N)CCCCN=[N+]=[N-])[C@@H](C)O)CCCCCCC=CCCC[C@@](C)(C(=O)N[C@@H](CCC(=O)O)C(N)=O)NC(=O)[C@H](CC(C)C)NC1=O [MP-011] |  | 23 (≈ 43.8 µg/mL) | 2.05 | > 50 | 18.05 | 
